Measurements as given in patent US20230078764A1 (Yumanity Therapeutics, Inc., priority 2019, published 2023).
Where two headings read alike, the source gives them in different places.

Key:
[1] = target: T1, human SCD5 (Homo sapiens, UniProt Q86SK9); assay: Growth inhibition of yeast strain expressing human SCD5 as sole desaturase (OLE1 deleted), OD600 readout; assay type: cell-based
T1 construct: expressed in transfected cells; host or cells: yeast strain with OLE1 deleted, plasmid-borne human SCD5 (selected in SD-Ura)
T1 sequence (Q86SK9 1-330): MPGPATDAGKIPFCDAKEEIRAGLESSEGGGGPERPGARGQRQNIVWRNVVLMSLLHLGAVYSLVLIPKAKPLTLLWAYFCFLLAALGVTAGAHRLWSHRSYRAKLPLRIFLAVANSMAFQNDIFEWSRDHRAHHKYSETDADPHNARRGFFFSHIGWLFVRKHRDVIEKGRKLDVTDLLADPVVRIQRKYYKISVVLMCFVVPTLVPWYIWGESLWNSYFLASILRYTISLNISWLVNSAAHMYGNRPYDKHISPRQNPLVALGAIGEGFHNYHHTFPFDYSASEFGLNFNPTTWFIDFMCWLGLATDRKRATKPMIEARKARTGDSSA

[2] = target: T2, human SCD1 (Homo sapiens, UniProt O00767); assay: Growth inhibition of yeast strain expressing human SCD1 as sole desaturase (OLE1 deleted), OD600 readout; assay type: cell-based
T2 construct: expressed in transfected cells; host or cells: yeast strain with OLE1 deleted, plasmid-borne human SCD1 (selected in SD-Ura)
T2 sequence (O00767 1-359): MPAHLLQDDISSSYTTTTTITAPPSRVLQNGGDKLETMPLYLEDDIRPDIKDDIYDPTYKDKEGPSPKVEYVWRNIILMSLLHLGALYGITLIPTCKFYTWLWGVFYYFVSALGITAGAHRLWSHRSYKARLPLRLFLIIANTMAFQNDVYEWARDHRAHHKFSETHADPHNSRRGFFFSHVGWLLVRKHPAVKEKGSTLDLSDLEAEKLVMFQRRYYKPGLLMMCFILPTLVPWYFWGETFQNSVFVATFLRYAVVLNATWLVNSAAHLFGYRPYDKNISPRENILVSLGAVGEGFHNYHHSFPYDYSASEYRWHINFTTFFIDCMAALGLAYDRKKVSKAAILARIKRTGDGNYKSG

[3] = yeast strain expressing human SCD5 as sole desaturase, growth (OD600) after 40 h at 30° C., read-out: SCD5 IC50
[4] = yeast strain expressing human SCD1 as sole desaturase, growth (OD600) after 40 h at 30° C., read-out: SCD1 IC50

IC50 [1, 3]	IC50 [2, 4]	Compound	IC50 ([1]; SCD5 IC50)	IC50 ([2]; SCD1 IC50)
–	–	COc1cc(Cl)cc(Cc2ccc(NC(=O)c3ccc(=O)n(C)c3)nc2)c1 [Compound 50, N-(5-(3-chloro-5-methoxybenzyl)pyridin-2-yl)-1-methyl-6-oxo-1,6-dihydropyridine-3-carboxamide]	20 nM	1530 nM
10 nM	240 nM	Cn1nccc(C(=O)Nc2ccc(Cc3ccc(F)c(F)c3)cn2)c1=O [Compound 547]	–	–
400 nM	> 45000 nM	N#Cc1ccc(C(=O)Nc2ccc(Cc3ccc(F)c(F)c3)cn2)nn1 [Compound 576]	–	–
2980 nM	25800 nM	Cn1nc(C(=O)Nc2ccc(Nc3cccc(Cl)c3)cn2)ccc1=O [Compound 367]	–	–
2630 nM	> 45000 nM	Cn1cc(C(=O)Nc2ccc(OCc3cccc(Cl)c3)cn2)ccc1=O [Compound 361]	–	–
20 nM	1740 nM	CCn1ccc(C(=O)Nc2ccc(Cc3cccc(Cl)c3)cn2)n1 [Compound 100, N-(5-(3-chlorobenzyl)pyridin-2-yl)-1-ethyl-1H-pyrazole-3-carboxamide]	–	–
450 nM	2600 nM	Cn1c(C(=O)Nc2ccc(Cc3ccc(F)c(F)c3)cn2)coc1=O [Compound 508]	–	–
9870 nM	> 45000 nM	Cn1cc(C(=O)Nc2ccc(C#CC3CC3)cn2)ccc1=O [Compound 337]	–	–
3530 nM	> 45000 nM	COc1cccc(Cc2ccc(NC(=O)C3=NN(C)C(=O)CC3)nc2)c1 [Example 30, N-(5-(3-methoxybenzyl)pyridin-2-yl)-1-methyl-6-oxo-1,4,5,6-tetrahydropyridazine-3-carboxamide]	–	–
50 nM	1420 nM	CN1N=C(C(=O)Nc2ccc(COc3cccc(Cl)c3)cn2)CCC1=O [Compound 261]	–	–
> 45000 nM	> 45000 nM	CN1N=C(C(=O)Nc2nnc(Cc3cccc(Cl)c3)[nH]2)CCC1=O [Compound 407]	–	–
9200 nM	> 45000 nM	CNCc1ccc(C(=O)Nc2ccc(Cc3cccc(Cl)c3)cn2)cn1 [Compound 289]	–	–
10 nM	> 45000 nM	N#Cc1cnc(C(=O)Nc2ccc(Cc3cccc(F)c3)cn2)nc1 [Compound 500]	–	–
21 nM	210 nM	Cc1nccc(C(=O)Nc2ccc(Cc3ccc(F)c(F)c3)cn2)n1 [Compound 485]	–	–
10 nM	42 nM	Cn1cc(C(=O)Nc2ccc(Cc3cc(F)cc(F)c3)cn2)n(C)c1=O [Compound 644]	–	–
10 nM	> 45000 nM	CC(=O)c1ccc(C(=O)Nc2ccc(Cc3cccc(Cl)c3)cn2)nc1 [Compound 502]	–	–
> 45000 nM	> 45000 nM	CS(=O)(=O)c1ccc(C(=O)Nc2ccc(Cc3cccc(F)c3)cn2)cc1 [Compound 423]	–	–
10 nM	99 nM	N#Cc1ccc(NC(=O)c2ccc(Cc3cc(F)cc(F)c3)cn2)cn1 [Compound 526]	–	–
740 nM	> 45000 nM	N#Cc1cncc(C(=O)Nc2ccc(Cc3cccc(F)c3)cn2)c1 [Compound 579]	–	–
310 nM	4390 nM	Cn1ccc(C(=O)Nc2ccc(Cc3cccc(F)c3)cn2)cc1=O [Compound 240]	–	–
> 45000 nM	> 45000 nM	O=C(Nc1ccc(Cc2cccc(F)c2)nn1)c1ccc(=O)n(CC2CC2)n1 [Compound 376]	–	–
50 nM	130 nM	CCO/C=C/c1ccc(C(=O)Nc2ccc(Cc3cccc(Cl)c3)cn2)cn1 [Compound 318]	–	–
2500 nM	> 45000 nM	Cn1nc(C(=O)Nc2ccc(Cc3cccc(C#N)c3F)cn2)ccc1=O [Compound 614]	–	–
14800 nM	> 45000 nM	CN1N=C(C(=O)Nc2ccc(Cc3cccs3)nn2)CCC1=O [Compound 271]	–	–

IC50 [1, 3]	IC50 [2, 4]	Compound	IC50 ([1]; SCD5 IC50)	IC50 ([2]; SCD1 IC50)
40 nM	40 nM	Cc1nnc(C(=O)Nc2ccc(Cc3cccc(Cl)c3)cn2)o1 [Compound 104, N-(5-(3-chlorobenzyl)pyridin-2-yl)-5-methyl-1,3,4-oxadiazole-2-carboxamide]	–	–
5200 nM	2700 nM	N#Cc1ccc(C(=O)Nc2ccc(CNc3cccc(Cl)c3)cn2)nc1 [Compound 498]	–	–
190 nM	160 nM	CC(O)c1ccc(C(=O)Nc2ccc(Cc3ccc(F)c(F)c3)cn2)nn1 (stereo not drawn) [Compound 530]	–	–
310 nM	26400 nM	CN1N=C(C(=O)Nc2ccc(Cc3cccc(C(F)F)c3)cn2)CCC1=O [Example 32, N-(5-(3-(difluoromethyl)benzyl)pyridin-2-yl)-1-methyl-6-oxo-1,4,5,6-tetrahydropyridazine-3-carboxamide]	–	–
> 45000 nM	> 45000 nM	CN1N=C(C(=O)Nc2nc(Cc3cccc(F)c3)cs2)CCC1=O [Compound 406]	–	–
371 nM	> 45000 nM	O=C(Nc1ccc(Cc2cccc(F)c2)cn1)c1ncc(Cl)cc1F [Compound 611]	–	–
> 45000 nM	> 45000 nM	Cn1nc(C(=O)N2CCC(Oc3cccc(Cl)c3)CC2)ccc1=O [Compound 432]	–	–
10 nM	10 nM	Cc1nccc(C(=O)Nc2ccc(Cc3cccc(F)c3)cn2)n1 [Compound 144, N-(5-(3-fluorobenzyl)pyridin-2-yl)-2-methylpyrimidine-4-carboxamide]	–	–
150 nM	> 45000 nM	Cc1cc(C(=O)Nc2ccc(Cc3cccc(F)c3)cn2)nn(C)c1=O [Compound 251]	–	–
10 nM	10 nM	Cc1nccc(C(=O)Nc2ccc(Cc3ccc(F)c(Cl)c3)cn2)n1 [Compound 244]	–	–
10 nM	37 nM	Cn1cc(C(=O)Nc2ccc(Cc3cc(F)c(F)c(Cl)c3)cn2)ccc1=O [Compound 543]	–	–
310 nM	> 45000 nM	Cn1nc(C(=O)Nc2ccc(COc3ccc(Cl)c(F)c3)cn2)ccc1=O [Compound 667]	–	–
6500 nM	25000 nM	CC(C)(C#N)c1ccc(C(=O)Nc2ccc(Cc3cccc(Cl)c3)cn2)cn1 [Compound 491]	–	–
310 nM	4800 nM	Cn1cc(NC(=O)c2ncc(Cc3ccc(F)c(F)c3)cc2F)ccc1=O [Compound 625]	–	–
200 nM	6700 nM	Cn1nc(C(=O)Nc2ccc(Cc3cccc(C(F)F)c3)cn2)ccc1=O [Compound 561]	–	–
450 nM	990 nM	Cn1nc(C(=O)Nc2ccc(Cc3cccc(Cl)c3)cc2)ccc1=O [Compound 3, N-(4-(3-chlorobenzyl)phenyl)-1-methyl-6-oxo-1,6-dihydropyridazine-3-carboxamide]	–	–
40 nM	80 nM	O=C(Nc1ccc(COc2ccc(F)c(Cl)c2)cn1)c1ccc(CO)nc1 [Compound 293]	–	–
70 nM	630 nM	Cn1cc(C(=O)Nc2ccc(Cc3cccc(F)c3)cn2)cc(F)c1=O [Compound 117, 5-fluoro-N-(5-(3-fluorobenzyl)pyridin-2-yl)-1-methyl-6-oxo-1,6-dihydropyridine-3-carboxamide]	–	–
14 nM	1500 nM	O=C(Nc1ccc(Cc2cccc(F)c2)cn1)c1ccnc(C2CC2)n1 [Compound 506]	–	–
420 nM	500 nM	Cn1cc(C(=O)Nc2ccc(Cc3cc(F)cc(F)c3)cn2)ncc1=O [Compound 672]	–	–
1350 nM	1580 nM	Cc1nc(NC(=O)C2=NN(C)C(=O)CC2)sc1Cc1cccc(F)c1 [Compound 219, N-(5-(3-fluorobenzyl)-4-methylthiazol-2-yl)-1-methyl-6-oxo-1,4,5,6-tetrahydropyridazine-3-carboxamide]	–	–
> 45000 nM	> 45000 nM	CN1N=C(C(=O)Nc2ccc(Cc3cncc(F)c3)cn2)CCC1=O [Compound 442]	–	–
460 nM	> 45000 nM	O=C(Nc1ccc(Cc2cccc(Cl)c2)cn1)c1cnc(Cl)c(F)c1 [Compound 319]	–	–

Compound	IC50 [1, 3]	IC50 [2, 4]	IC50 ([1]; SCD5 IC50)	IC50 ([2]; SCD1 IC50)
CCn1cc(C(=O)Nc2ccc(Cc3cc(F)cc(OC)c3)cn2)ccc1=O [Compound 78, 1-ethyl-N-(5-(3-fluoro-5-methoxybenzyl)pyridin-2-yl)-6-oxo-1,6-dihydropyridine-3-carboxamide]	640 nM	> 45000 nM	–	–
N#Cc1ccc(C(=O)Nc2ccc(Cc3ccc(F)c(Cl)c3)cn2)nc1 [Compound 130, N-(5-(3-chloro-4-fluorobenzyl)pyridin-2-yl)-5-cyanopicolinamide]	40 nM	> 45000 nM	–	–
Cn1nc(C(=O)Nc2ccc(Cc3ccc(C(F)(F)F)cc3)cn2)ccc1=O [Example 39, 1-methyl-6-oxo-N-(5-(4-(trifluoromethyl)benzyl)pyridin-2-yl)-1,6-dihydropyridazine-3-carboxamide]	920 nM	> 45000 nM	–	–
Cn1nc(C(=O)Nc2ccc(Cc3cc(F)c(F)c(F)c3)cn2)ccc1=O [Example 41, 1-methyl-6-oxo-N-(5-(3,4,5-trifluorobenzyl)pyridin-2-yl)-1,6-dihydropyridazine-3-carboxamide]	10 nM	190 nM	–	–
